Data from US5108916A, “Process for stereoselectively hydrolyzing, transesterifying or esterifying with immobilized isozyme of lipase from Candida rugosa” (priority 1989, dated 1992).
Where two headings read alike, the source gives them in different places.

Key:
[1] = Conversion of ketoprofen esters in organic solvent/oleic acid media; type: biochemical
Procedure: To optimize the organic solvent used in the presence of oleic acid a variety of organic solvents were used, along with a variety of ketoprofen esters. In this experiment, 50 mg of ketoprofen esters were weighed into flasks, along with 1 ml of oleic acid and 9 ml of an organic solvent. The flasks were capped and incubated at 35° C., 250 rpm, for 10-26 hours before stopping the reaction by first adding 4 ml CHCl3 to solubilize the substrates and products, then filtering through a 0.2 um Gelman Nylaflo filter. Samples were then diluted in methanol and analyzed by HPLC as in Example 18. The experiment was also performed using 200 ul of oleic acid and 10ml buffer, which was acidified, extracted with CHCl3 and analyzed by HPLC as above.
One ml of oleic acid was added, as was 9 ml of buffer (100 mM (NH4)H2 PO4, pH 5.5) or organic solvent. Flasks were placed into a 35° C. incubator and shaken at 250 rpm for 13 hours. Reaction was stopped by adding 5 ml CHCl3 to solubilize the organic material and filtering the solutions using 0.2 um Gelman Nylaflo membranes to remove the enzyme. Samples were analyzed on an ODS-3 RAC column using CH3 OH:10 mM (NH4)H2PO4 (60:40) as eluant, flow rate 4 ml/min, and detection at 254 nm. %ee was determined by the resolution of diastereomeric amides on the above HPLC system, as per Example 18.

Lipase MY = assay: Two phase Lipase MY hydrolysis of HPPA-Me in organic solvent/water mixtures; type: biochemical, Candida rugosa
Procedure: A. 75% organic solvent/25% aqueous buffer--Fifty milligrams of R,S-HPPA-Me was combined in 10 ml Scintillation vial with 7.5 ml of organic solvent, 2.5 ml of 50 mM phosphate buffer pH 6.0, and 5 mg Lipase MY. The reactions were placed on shaker and shaken for a period of 0-43 hours with samples being taken at various times.
B. 25% organic solvent/75% aqueous buffer--Fifty milligrams of R,S-HPPA-Me was combined, in 10 ml Scintillation vial with 2.5 ml of organic solvent, 7.5 ml 50mM phosphate buffer (pH 6.8), and 5 mg Lipase MY. The reactions were shaken for a period of 0-143 hours with samples being taken at various time points.
The data in Table 2 represents the % conversion and % R-HPPA produced using the indicated organic solvents in a two-phase system wherein 75% […] of the total vehicle (solvent) was water and the balance (25%) was organic solvents.

CSC-2 = assay: Effect of additives and solvents on hydrolysis of ketoprofen monoglyceride by CSC-2; type: biochemical, Candida rugosa; conditions: solvent/buffer 1:1 two phase, 26 hours; for Relative Rate: buffer = 100
Procedure: Hydrolysis of ketoprofen-monoglyceride (50mg) was carried out in various DMF-100mM (NH4)H2 PO4 buffer (pH 5.5) mixtures. In each flask a solution of ketoprofen monoglyceride (50mg) in DMF (200ul) was added. DMF was added followed by 100mM (NH4)H2 PO4 buffer. […] After 22 hours, 2%, 5%, and 10% DMF samples were acidified, extracted with CHCl3 (2×10ml) and analyzed. The other samples were analyzed directly as in Example 18. The acid produced decreases with increasing amount of DMF.
Small amounts of DMF were added to the reaction mixture to increase the solubility of KPG. In all cases 100mM ammonium phosphate buffer (pH 5.5) was used and 2% (v/v) detergents were added and the total volume was 10ml.
The buffer reaction (entry #2 in the table) contained enzyme in buffer (2 ml) and the buffer only (entry #1 in the table) reaction contained no enzyme.
The presence of a surfactant like Tween increases the solubility o lipophilic compounds in water. […] Tween 80 was added to make 1% and 2% solution (v/v). Bovine serum albumin (BSA) (10mg) was added to each of two flasks. A solution of 50mg of ketoprofen monoglyceride in 200ul DMF was added to each. After 20 hours at 250 rpm and 35° C. the reaction mixtures were acidified, extracted and analyzed by the usual HPLC procedure as in Example 18.
Various surfactants were used at 2% of the reaction volume to determine their effect on the enzymatic reaction involving the conversion of ketoprofen monoglyceride (KPG) to ketoprofen (KP). […] Flasks were covered with parafilm and incubated in a 35° C. water bath at 250 rpm, typically overnight. Reactions were stopped by acidification, extracted with CHCl3 (2×10 ml). The %acid and %ee were determined by the method of Example 18. It is to be noted that Hydrophile-Lipophile Balance (HLB) values have no apparent bearing on the ability of the surfactant to enhance the conversion of KPG to KP.
75 mg of KPG (in the absence of DMF) was individually weighed into 50 ml Erlenmeyer flasks. […] 9 ml of 100 mM (NH4)H2 PO4, pH 5.5 buffer was added, and the flasks were placed into a 35° C., 250 rpm water bath incubator for 20 hours. The reactions were acidified, extracted with CHCl3 and examined by HPLC as in Example 18. The %ee was determined as per Example 18.
Various amounts of oleic acid or its esters were added, and the reactions stopped at the times indicated, acidified, extracted with CHCl3 and analyzed as in Example 18.
An experiment was performed as in Example 41, but using 100, 200 and 500 ul of olive oil to determine if it would enhance the rate of conversion of KPG to KP. […] After 20 hours, all reactions were acidified, extracted with CHCl3 and analyzed by HPLC as in Example 18. The results are given below:
50 mg of KPG was weighed into Erlenmeyer flasks. […] Flasks were incubated at 35° C., 250 rpm for 23 hours. The reactions were stopped by acidification, extracted with CHCl3, and analyzed by HPLC as in Example 18. The additive is listed along with its percentage composition of glycerides of oleic acid.
To determine the problems associated with having oleic acid or oleate. esters in the reaction media, the following experiment was performed. […] Flasks were placed in a 35° C. incubator at 250 rpm, and the reactions were sampled by taking 200 ul aliquots at various time points. These aliquots were analyzed by HPLC (ODS-3 RAC column, CH3 OH: 10 mM (NH4)H2 PO4 (60:40) eluant, 4 ml/min, 254 nm detection) to determine the course of reaction. When approximately 40% acid was produced, the reactions were stopped by placing the flasks in the -70° C. freezer. Two extraction procedures were utilized to determine the best method of isolating S-Ketoprofen free of oleic acid. The first (listed as Extraction Procedure I in the following table) involved first making the solution basic (pH 10) with NaOH, then extracting with hexane, then CHCl3.

[2] = Buffer 10 ml, OA 200 ul, enzyme not named in Example 55
[3] = Hexane 9 ml, OA 1 ml, 10-26 hours
[4] = Isooctane 9 ml, OA 1 ml, * stopped at 10 Hr
[5] = KPG 50 mg, 100 mg CSC-2 on silica (279-SD-1), 9 ml solvent (or buffer)/1 ml oleic acid, 13 hours

Q: For `COC(=O)C(C)c1cccc(C(=O)c2ccccc2)c1` (centres unmarked) [Methyl ester], which “% ee” value ([1]; Buffer 10 ml, OA 200 ul) is on record?
A: The value was 96%.

Q: And the “% Acid” value [1, 2]?
A: The value was 2%.

Q: What about the “% Acid” value ([1]; CHCl3 9 ml, OA 1 ml) of the same compound?
A: Its value is 0%.

Q: And the “% Acid” value [1, 3]?
A: Its value is 0.8%.

Q: And the “% Acid” value ([1]; Isooctane 9 ml, OA 1 ml)?
A: Its value is 2%.

Q: What about the “% ee” value [1, 4] of the same compound?
A: The value was 93%.

Q: And the “% Acid” value ([1]; Toluene 9 ml, OA 1 ml)?
A: Its value is 0%.

Q: What does the source list for `CC(C(=O)OCC(O)CO)c1cccc(C(=O)c2ccccc2)c1` (centres unmarked) [Monoglyceride Ester, ketoprofen monoglyceride]?
A: % ee ([1]; Buffer 10 ml, OA 200 ul): 96%; % Acid [1, 2]: 26%; % Acid ([1]; CHCl3 9 ml, OA 1 ml): 0%; % Acid [1, 3]: 47%; % ee ([1]; Hexane 9 ml, OA 1 ml, * stopped at 10 Hr): 97%; % Acid ([1]; Isooctane 9 ml, OA 1 ml): 31%; % ee [1, 4]: 96%; % Acid ([1]; Toluene 9 ml, OA 1 ml): 0%

Q: Which results are given for `CC(C)=O` [acetone]?
A: % R (Lipase MY): 0%; Conversion (ester/acid) (Lipase MY): 0%

Q: For `ClC(Cl)(Cl)Cl` [carbon tetrachloride], which “% R” value (Lipase MY; solvent 25%, 2.7 hr) is on record?
A: The value was 79%.

Q: And the “Conversion (ester/acid)” value (Lipase MY; solvent 25%, 2.7 hr)?
A: The value was 58%.

Q: And the “% R” value (Lipase MY; solvent 75%, 2.7 hr)?
A: The value was 76%.

Q: What about the “Conversion (ester/acid)” value (Lipase MY; solvent 75%, 2.7 hr) of the same compound?
A: Its value is 61%.

Q: What about the “EE of S-acid” value (CSC-2) of the same compound?
A: Its value is 95%.

Q: And the “Relative Rate” value (CSC-2)?
A: Its value is 48.

Q: Which results are given for `CC(C)c1ccccc1` [cumene]?
A: % R (Lipase MY; solvent 25%, 2.7 hr): 100%; Conversion (ester/acid) (Lipase MY; solvent 25%, 2.7 hr): 35%; EE of S-acid (CSC-2): 86%; Relative Rate (CSC-2): 91

Q: With `C1CCCCC1` [cyclohexane] as the compound, how does the “% R” value (Lipase MY; solvent 25%, 2.7 hr) read?
A: Its value is 100%.

Q: And the “Conversion (ester/acid)” value (Lipase MY; solvent 25%, 2.7 hr)?
A: Its value is 35%.

Q: And the “% R” value (Lipase MY; solvent 75%, 2.7 hr)?
A: The value was 83%.

Q: And the “Conversion (ester/acid)” value (Lipase MY; solvent 75%, 2.7 hr)?
A: The value was 31%.

Q: What about the “EE of S-acid” value (CSC-2) of the same compound?
A: The value was 95%.

Q: What about the “Relative Rate” value (CSC-2) of the same compound?
A: The value was 185.

Q: What about the “% Acid” value ([1]; KPEG 50 mg, as E212) of the same compound?
A: The value was 29%.

Q: What about the “% ee S-acid” value ([1]; KPEG, as E212) of the same compound?
A: The value was 83%.

Q: And the “% Acid” value [1, 5]?
A: The value was 38%.

Q: And the “% ee S-acid” value ([1]; KPG, as E212)?
A: Its value is 98%.

Q: Which results are given for `CCO` [ethyl alcohol]?
A: Conversion (ester/acid) (Lipase MY): 0%; % R (Lipase MY; solvent 25%, 43 hr): 0%; % R (Lipase MY; solvent 75%, 43 hr): 0%

Q: For `Fc1ccccc1` [fluorobenzene], which “% R” value (Lipase MY; solvent 25%, 5.3 hr) is on record?
A: The value was 95%.

Q: What about the “Conversion (ester/acid)” value (Lipase MY; solvent 25%, 5.3 hr) of the same compound?
A: The value was 40%.

Q: What about the “% R” value (Lipase MY; solvent 75%, 5.3 hr) of the same compound?
A: Its value is 86%.

Q: And the “Conversion (ester/acid)” value (Lipase MY; solvent 75%, 5.3 hr)?
A: The value was 29%.

Q: Which “% R” value (Lipase MY; solvent 25%, 5.3 hr) does the source give for `ClC(Cl)=C(Cl)Cl` [tetrachloroethylene] here?
A: Its value is 83%.

Q: And the “Conversion (ester/acid)” value (Lipase MY; solvent 25%, 5.3 hr)?
A: The value was 61%.

Q: And the “% R” value (Lipase MY; solvent 75%, 5.3 hr)?
A: The value was 85%.

Q: And the “Conversion (ester/acid)” value (Lipase MY; solvent 75%, 5.3 hr)?
A: Its value is 58%.

Q: And the “EE of S-acid” value (CSC-2)?
A: Its value is 27%.

Q: And the “Relative Rate” value (CSC-2)?
A: Its value is 3.

Q: And the “% Acid” value ([1]; KPEG 50 mg, as E212)?
A: Its value is 0%.

Q: And the “% ee S-acid” value ([1]; KPEG, as E212)?
A: Its value is 0%.

Q: And the “% Acid” value [1, 5]?
A: The value was 1%.

Q: What about the “% ee S-acid” value ([1]; KPG, as E212) of the same compound?
A: Its value is 0%.

Q: With `Cc1ccccc1` [toluene] as the compound, how does the “% R” value (Lipase MY; solvent 25%, 2.7 hr) read?
A: Its value is 100%.

Q: What about the “% R” value (Lipase MY; solvent 75%, 2.7 hr) of the same compound?
A: Its value is 90%.

Q: And the “Conversion (ester/acid)” value (Lipase MY; solvent 75%, 2.7 hr)?
A: The value was 25%.

Q: What about the “EE of S-acid” value (CSC-2) of the same compound?
A: Its value is 58%.

Q: And the “Relative Rate” value (CSC-2)?
A: Its value is 15.

Q: Which “% R” value (Lipase MY; solvent 25%, 5.3 hr) does the source give for xylenes here?
A: Its value is 100%.

Q: What about the “Conversion (ester/acid)” value (Lipase MY; solvent 25%, 5.3 hr) of the same compound?
A: Its value is 49%.

Q: And the “% R” value (Lipase MY; solvent 75%, 5.36 hr)?
A: The value was 89%.

Q: What about the “Conversion (ester/acid)” value (Lipase MY; solvent 75%, 5.36 hr) of the same compound?
A: The value was 41%.

Q: And the “EE of S-acid” value (CSC-2)?
A: Its value is 81%.

Q: What about the “Relative Rate” value (CSC-2) of the same compound?
A: The value was 44.
